# Assay results from US9259443B2, “Compositions and methods for the generation of platelets and methods of use thereof” (The Children's Hospital of Philadelphia, priority 2010, dated 2016).
# Assays:
# NSG mice = test: Infusion of human platelets or human ex vivo-grown megakaryocytes into NSG mice; assay type: in vivo, mouse; conditions: for time of spike of platelets after infusion: NSG mice; for platelets per megakaryocyte: two million large cells
# Description: FIG. 7A provides a graph of human platelets infused into immune-suppressed NOD/SCID/[…] NSG mice over time. FIG. 7B provides a graph of the percentage of human platelets over time after infusion of fetal liver megakaryocytes into NSG mice. FIG. 7C provides a graph of human platelets over time after infusion of dimethylfasudil (diMF; 5 μM), a Rho/ROCK1 kinase inhibitor, treated human fetal liver megakaryocytes (large cells) into NSG mice. FIG. 7D provides a graph of human platelets over time after infusion of human megakaryocytes (large cell) from CD34+ bone marrow cells into NSG mice. FIG. 7E provides a graph of human platelets over time after infusion of dimethylfasudil (2 μM)-treated human CD34+ bone marrow megakaryocytes (large cell) into NSG mice.
# NSG mice (Shultz et al. (2007) Nat. Rev. Immunol., 7:118-130; Shultz et al. (2005) J. Immunol., 174:6477-89) were infused with human platelets. […] When human fetal liver (FL) megakaryocytes were infused into NSG mice, a spike of platelets was observed within 10 hours of infusion (FIG. 7B). Two million large cells infused yielded about 13 platelets per megakaryocyte.
# To increase platelet production, dimethylfasudil (diMF), a Rho/ROCK1 kinase inhibitor, was tested for its ability to promote human FL megakaryocyte maturation. […] Further, the infusion of two million large cells yielded only about 6 platelets per megakaryocyte. Next, human-Megs (large) from bone marrow (BM) CD34+ cells were infused into NSG mice. […] Further, the infusion of two million large cells yielded about 70 platelets per megakaryocyte. When BM CD34+ Megs (large) were treated with DiMF (2 μm) and infused into NSG mice, a spike of platelets was observed immediately (FIG. 7E). Further, the infusion of two million large cells yielded only about 4 platelets per megakaryocyte.
# hαIIb+ recipient mice = test: FL cells grown with metalloproteinase (ADAM17) inhibitors, infused into hαIIb+ mice, derived platelet half-life; assay type: in vivo, mouse
# [1] = BM CD34+ Megs (large) treated with DiMF 2 μm
# [2] = human FL-megakaryocytes (large) treated with DiMF 5 μm
smiles,measurement,setting,value
"Cc1cncc2cccc(S(=O)(=O)N3CCCNC[C@@H]3C)c12 [DiMF, dimethylfasudil]",time of spike of platelets after infusion,NSG mice; [1],immediately
same,platelets per megakaryocyte,NSG mice; [1],about 4
same,time of spike of platelets after infusion,NSG mice; [2],within about one hour
same,platelets per megakaryocyte,NSG mice; [2],about 6
CNC(=O)[C@H](Cc1c[nH]c2ccccc12)NC(=O)[C@@H](CC(=O)NO)CC(C)C [GM6001],change in derived platelet half-life,hαIIb+ recipient mice; FL cells grown with GM6001 100 μM,no change
CC(C)C[C@H](CC(=O)NO)C(=O)N[C@@H](Cc1ccc2ccccc2c1)C(=O)N[C@@H](C)C(=O)NCCN [TAP-1],change in derived platelet half-life,hαIIb+ recipient mice; FL cells grown with TAP-1 10 μM,no change
